# Data as given in ChEMBL document CHEMBL5365457, “Selective HDAC3 Inhibitors with Potent In Vivo Antitumor Efficacy against Triple-Negative Breast Cancer” (J Med Chem, 2023).
# pIC50: −log10 of the molar value. Calls of active or inactive are those of the source. The rule behind the calls is not given here.
# Experiments:
# MCF7 = assay: Cytotoxicity against human MCF7 cells assessed as inhibition of cell growth incubated for 72 hrs by MTT assay; type: functional, cell-based; settings: MCF7, 72 h
# 4T1 [1] = assay: Cytotoxicity against mouse 4T1 cells assessed as inhibition of cell growth incubated for 72 hrs by MTT assay; type: functional, cell-based; settings: 4T1, 72 h
# MDA-MB-231 [2] = assay: Cytotoxicity against human MDA-MB-231 cells assessed as inhibition of cell growth incubated for 72 hrs by MTT assay; type: functional, cell-based; settings: MDA-MB-231, 72 h
# MDA-MB-453 = assay: Cytotoxicity against human MDA-MB-453 cells assessed as inhibition of cell growth incubated for 72 hrs by MTT assay; type: functional, cell-based; settings: MDA-MB-453, 72 h
# [3] = Cytotoxicity against human MCF-10A cells assessed as inhibition of cell growth incubated for 72 hrs by MTT assay; type: toxicity, cell-based
# [4] = Cytotoxicity against human HCEC cells assessed as inhibition of cell growth incubated for 72 hrs by MTT assay; type: toxicity, cell-based; settings: human, HCEC cells
# [5] = Half life in Wistar rat at 15 mg/kg, ip measured upto 24 hrs by HPLC analysis; type: ADME, organism-based; settings: in vivo
# [6] = Tmax in Wistar rat at 15 mg/kg, ip measured upto 24 hrs by HPLC analysis; type: ADME, organism-based; settings: in vivo
# [7] = Cmax in Wistar rat at 15 mg/kg, ip measured upto 24 hrs by HPLC analysis; type: ADME, organism-based; set-up: dose 15 mg/kg, time < 24 hrs, route ip; settings: in vivo
# [8] = AUC (0 to t) in Wistar rat at 15 mg/kg, ip measured upto 24 hrs by HPLC analysis; type: ADME, organism-based; set-up: dose 15 mg/kg, time < 24 hrs, route ip; settings: in vivo
# [9] = AUC (0 to infinity) in Wistar rat at 15 mg/kg, ip measured upto 24 hrs by HPLC analysis; type: ADME, organism-based; set-up: dose 15 mg/kg, time < 24 hrs, route ip; settings: in vivo
# [10] = MRT (0 to infinity) in Wistar rat at 15 mg/kg, ip measured upto 24 hrs by HPLC analysis; type: ADME, organism-based; settings: in vivo
# [11] = Apparent volume of distribution in Wistar rat at 15 mg/kg, ip measured upto 24 hrs by HPLC analysis; type: ADME, organism-based; settings: in vivo
# [12] = Apparent oral clearance in Wistar rat at 15 mg/kg, ip measured upto 24 hrs by HPLC analysis; type: ADME, organism-based; settings: in vivo
# [13] = AUMC (0 to infinity) in Wistar rat at 15 mg/kg, ip measured upto 24 hrs by HPLC analysis; type: ADME, organism-based; settings: in vivo
# 4T1 [14] = assay: Induction of apoptosis in mouse 4T1 cells at 1.54 uM incubated for 72 hrs by annexin/PI staining based flow cytometry analysis (reference value: 1.35%); type: functional
# 4T1 [15] = assay: Cell cycle arrest in mouse 4T1 cells assessed as accumulation of cells at G1 phase at 1.54 uM incubated for 72 hrs by flow cytometry; type: functional
# 4T1 [16] = assay: Cell cycle arrest in mouse 4T1 cells assessed as accumulation of cells at G1 phase at 7.72 uM incubated for 72 hrs by flow cytometry; type: functional
# 4T1 [17] = assay: Cell cycle arrest in mouse 4T1 cells assessed as accumulation of cells at G1 phase at 38.6 uM incubated for 72 hrs by flow cytometry; type: functional
# MDA-MB-231 [18] = assay: Cytotoxicity against wild type human MDA-MB-231 cells assessed as reduction in cell viability incubated for 72 hrs by MTT assay; type: functional, cell-based; settings: MDA-MB-231, 72 h
# [19] = Cytotoxicity against Oxaliplatin-resistant human MDA-MB-231 cell assessed as reduction in cell viability incubated for 72 hrs by MTT assay; type: functional, cell-based; settings: Oxaliplatin-resistant MDA-MB-231 cell
# 4T1 [20] = assay: Antitumor activity against mouse 4T1 cells implanted in BALB/c mouse assessed as reduction in tumor volume at 15 mg/kg, ip administered 5 times a week for 21 days (reference value: 52.25 +/-13.24 mm3); type: functional; settings: time 21 day
# 4T1 [21] = assay: Antitumor activity against mouse 4T1 cells implanted in BALB/c mouse assessed as reduction in tumor volume at 5 mg/kg, ip administered 5 times a week for 21 days (reference value: 51.91 +/-7.45 mm3); type: functional; settings: time 21 day
# 4T1 [22] = assay: Antitumor activity against mouse 4T1 cells implanted in BALB/c mouse assessed as reduction in tumor weight at 15 mg/kg, ip administered 5 times a week for 21 days; type: functional; settings: time 21 day
# 4T1 [23] = assay: Antitumor activity against mouse 4T1 cells implanted in BALB/c mouse assessed as tumor growth inhibition at 15 mg/kg, ip measured on day 7; type: functional; settings: 4T1, 168 h, time 7 day, read-out: TGI
# 4T1 [24] = assay: Antitumor activity against mouse 4T1 cells implanted in BALB/c mouse assessed as tumor growth inhibition at 15 mg/kg, ip measured on day 14; type: functional; settings: 4T1, 336 h, time 14 day, read-out: TGI
# 4T1 [25] = assay: Antitumor activity against mouse 4T1 cells implanted in BALB/c mouse assessed as tumor growth inhibition at 15 mg/kg, ip measured on day 21; type: functional; settings: 4T1, 504 h, time 21 day, read-out: TGI
# 4T1 [26] = assay: Antitumor activity against mouse 4T1 cells implanted in BALB/c mouse assessed as increase in apoptosis in tumor tissue at 5 to 15 mg/kg, ip by TUNEL staining based microscopic analysis; type: functional, organism-based; settings: dose 5-15 mg/kg
# 4T1 [27] = assay: Antitumor activity against mouse 4T1 cells implanted in BALB/c mouse assessed as reduction in Ki-67 expression in tumor tissue at 5 to 15 mg/kg, ip measured for 21 days by fluorescence based microscopic analysis; type: functional, organism-based; settings: dose 5-15 mg/kg, time 21.0 day
# [28] = Toxicity in BALB/c mouse implanted with mouse 4T1 cells assessed as heart damage at 5 to 15 mg/kg, ip measured after 21 days by H and E staining based assay; type: organism-based; settings: in vivo, 504 h, dose 5-15 mg/kg, time 21 day
# [29] = Toxicity in BALB/c mouse implanted with mouse 4T1 cells assessed as liver damage at 5 to 15 mg/kg, ip measured after 21 days by H and E staining based assay; type: organism-based; settings: in vivo, 504 h, dose 5-15 mg/kg, time 21 day
# [30] = Toxicity in BALB/c mouse implanted with mouse 4T1 cells assessed as kidney damage at 5 to 15 mg/kg, ip measured after 21 days by H and E staining based assay; type: organism-based; settings: in vivo, 504 h, dose 5-15 mg/kg, time 21 day
# [31] = Toxicity in BALB/c mouse implanted with mouse 4T1 cells assessed as spleen damage at 5 to 15 mg/kg, ip measured after 21 days by H and E staining based assay; type: organism-based; settings: in vivo, 504 h, dose 5-15 mg/kg, time 21 day
# 4T1 [32] = assay: Antitumor activity against mouse 4T1 cells implanted in BALB/c mouse assessed as increase in number of lung nodules at 15 mg/kg, ip measured for 7 days by H and E staining based assay; type: functional, organism-based; settings: time 7.0 day
smiles,measurement,setting,value
CCCCNNC(=O)c1ccc(Br)cc1,pIC50,MCF7,4.81
same,pIC50,4T1 [1],5.11
same,pIC50,MDA-MB-231 [2],4.61
same,pIC50,MDA-MB-453,4.60
same,IC50 at 72 h,[3],99.3 µM
same,IC50 at 72 h,[4],95.4 µM
same,half-life,[5],311 min
same,Tmax,[6],2 h
same,Cmax,[7],5240 ng/mL
same,AUC(0-t) at 24 h,[8],14500 ng·h/mL
same,AUC(0-inf),[9],14700 ng·h/mL
same,MRT inf,[10],3.66 h
same,Vz/F,[11],7.65 (mg/kg)/(ug/ml)
same,CL/F,[12],1.03 (mg/kg)/(ug/ml).hr
same,AUMC,[13],53.64 ug/ml.hr^2
same,Activity,4T1 [14],30.4%
same,Activity,4T1 [15],50.4%
same,Activity,4T1 [16],41.4%
same,Activity,4T1 [17],52.3%
same,pIC50,MDA-MB-231 [18],4.61
same,pIC50,[19],4.56
same,Activity,4T1 [20],520.32 mm3
same,Activity,4T1 [21],1005.32 mm3
same,Activity,4T1 [22],0.29 g
same,inhibition in vivo at 15 mg/kg,4T1 [23],55.6%
same,inhibition in vivo at 15 mg/kg,4T1 [24],38.4%
same,inhibition in vivo at 15 mg/kg,4T1 [25],39.5%
same,Activity,4T1 [26],Active
same,Activity,4T1 [27],Active
same,Activity,[28],Non-Toxic
same,Activity,[29],Non-Toxic
same,Activity,[30],Non-Toxic
same,Activity,[31],Non-Toxic
same,Activity,4T1 [32],inactive
